Test results from patent US20250345392A1, “ANNEXIN A1 LIQUID PHARMACEUTICAL COMPOSITION” (ResoTher Pharma A/S, priority 2022, published 2025).
Like-named read-outs stand apart in the source and are kept apart here. Ends that are not written are not given here.

Assay: Clinical test in humans, three 30-min i.v. infusions 8 hours apart, plasma PK
Assay type: in vivo
Settings: human, three 30-min i.v. infusions 8 h apart; for AUC / Cmax / Tmax / AUC(0-t) / half-life: iv; for AUC(0-t): read-out: AUC0-24; for half-life: after the last infusion
Description: A total of 8 subjects were included in each group. In each group, 6 subjects received the active treatment and 2 received the placebo. The active treatment was as follows in each group: • Group 9 received three 8 hours apart 30-min Peptide 1 intravenous (i.v.) infusions, wherein each i.v. infusion corresponded to a dose of 50 μg/kg. • Group 10 received three 8 hours apart 30-min Peptide 1 intravenous (i.v.) infusions, wherein each i.v. infusion corresponded to a dose of 100 μg/kg. • Group 11 received three 8 hours apart 30-min Peptide 1 intravenous (i.v.) infusions, wherein each i.v. infusion corresponded to a dose of 140 μg/kg. • Group 12 received three 8 hours apart 30-min Peptide 1 intravenous (i.v.) infusions, wherein each i.v. infusion corresponded to a dose of 200 μg/kg. • Group 13 received three 8 hours apart 30-min Peptide 1 intravenous (i.v.) infusions, wherein each i.v. infusion corresponded to a dose of 250 μg/kg.
The tested liquid pharmaceutical composition has a pH of 8.2-8.4, and comprises the following: • i) 5 mg/ml of Peptide 1, • ii) 4% (w/w) mannitol, • iii) 1% (w/w) sucrose, • iv) 0.01% (w/w) Polysorbate-80, • v) 10 mM glycyl-glycine, and • vi) sterile water for injection.
Venous whole blood samples were collected from all subjects.
Plasma samples were analyzed for Peptide 1 using validated Liquid chromatography—Tandem Mass spectrometry (LC-MS/MS) methods by Charles River Laboratories (CRL).
Derivation of PK parameters were carried out by PhinC Development using Phoenix WinNonlin® (Version Phoenix 8.1—Certara—Princeton—USA). A non-compartmental analysis (NCA) approach was chosen.
For the calculation of the PK parameters and characteristics the following rules were applied: • All the plasma concentrations validated by the bioanalytical laboratory and provided to the pharmacokinetics were used for the PK analysis. • The theoretical PK blood sampling time points were used. • At time points in the lag-time between time zero and the first concentration equal or above limit of quantification (LOQ), concentrations below the LOQ (BLQ) were set to zero (0). • Concentrations BLQ between 2 concentrations equal or above LOQ were considered as missing. • Trailing concentrations (at time point between time of last measurable concentrations and time of last blood sample) BLQ were not used in calculations. • For 3 infusions regimen, each infusion was considered separately and BLQ rules were applied for each infusion. […] If the pre-dose value was greater than 5% of Cmax, the subject was dropped from all statistical evaluations.
AUC0-tau was only calculated if there were at least 3 concentrations above LOQ. • AUC0-24: The area under the plasma concentration-time curve from time zero (pre-dose) to 24 h was calculated as the sum of the 3 AUC0-tau: AUC0-24=AUC0-tau1+AUC0-tau2+AUC0-tau3. • AUC0-t: The area under the concentration-time curve from time zero (pre-dose) to the time of last quantifiable concentration was calculated using a linear trapezoidal method after each administration (AUC0-t1, AUC0-t2 and AUC0-t3, where AUC0-t1 was AUC0-t corresponded to the AUC from pre-dose to the last measurable quantifiable concentration following the first infusion). AUC0-t was only calculated if there were at least 3 concentrations above LOQ. • ke: The terminal plasma elimination rate-constant was estimated from log-linear regression analysis of the terminal phase of the plasma concentration-time profile. The number of points included in the terminal phase was determined by visual inspection of the semi-log plots of the plasma concentration-time profiles. A minimum of 3 data points, including the last measured data point and excluding Cmax, had to be available for the regression. The correlation coefficient for the goodness of the fit of the regression line through the data points (r^2) had to be 0.8000 or higher, for the value to be considered reliable. […]

For “AMVSEFLKQAWFIENEEQEYVQTLKSSKGGPGSAVSPYPTFNPSSDV-NH2 [Peptide 1]”, the AUC (in vivo, 250 ug/kg, 250 μg/kg each, mean, read-out: AUC0-t3) was 2430 ng·h/mL, the AUC (in vivo, 250 ug/kg, 250 μg/kg each, mean, read-out: AUC0-tau1) was 2630 ng·h/mL and the AUC (in vivo, 250 ug/kg, 250 μg/kg each, mean, read-out: AUC0-tau2) was 2440 ng·h/mL. It also gave an AUC (in vivo, 250 ug/kg, 250 μg/kg each, mean, read-out: AUC0-tau3) of 2480 ng·h/mL, a Cmax (in vivo, 250 ug/kg, 250 μg/kg each, mean, read-out: Global Cmax) of 2330 ng/mL and a Tmax (in vivo, 250 ug/kg, 250 μg/kg each, median, read-out: Global tmax) of 8.5 h. The Tmax (in vivo, 250 ug/kg, 250 μg/kg each, median, read-out: tmax3) was 16.5 h, the AUC (in vivo, 50 μg/kg each, GM, read-out: AUC0-t1) was 417 ng·h/mL and the AUC (in vivo, 50 μg/kg each, GM, read-out: AUC0-tau1) was 509 ng·h/mL. It also gave an AUC (in vivo, 50 μg/kg each, mean, read-out: AUC0-tau2) of 517 ng·h/mL, an AUC (in vivo, 50 μg/kg each, mean, read-out: AUC0-tau3) of 541 ng·h/mL and an AUC(0-t) (in vivo, 100 μg/kg each, GM) of 3600 ng·h/mL. For the same substance, the AUC (in vivo, 100 μg/kg each, GM, read-out: AUC0-t1) was 982 ng·h/mL, the AUC (in vivo, 100 μg/kg each, GM, read-out: AUC0-t2) was 1120 ng·h/mL and the AUC (in vivo, 100 μg/kg each, GM, read-out: AUC0-t3) was 1090 ng·h/mL. It also gave an AUC (in vivo, 100 μg/kg each, mean, read-out: AUC0-t1) of 993 ng·h/mL, an AUC (in vivo, 100 μg/kg each, mean, read-out: AUC0-tau1) of 1120 ng·h/mL and an AUC (in vivo, 100 μg/kg each, mean, read-out: AUC0-tau2) of 1240 ng·h/mL. It also gave an AUC (in vivo, 100 μg/kg each, mean, read-out: AUC0-tau3) of 1260 ng·h/mL, a Cmax (in vivo, 100 μg/kg each, mean, read-out: Global Cmax) of 1020 ng/mL and a half-life (in vivo, 140 μg/kg each, GM) of 1.93 h. The AUC(0-t) (in vivo, 140 μg/kg each, GM) was 5310 ng·h/mL, the AUC (in vivo, 140 μg/kg each, GM, read-out: AUC0-t3) was 1570 ng·h/mL and the AUC (in vivo, 140 μg/kg each, mean, read-out: AUC0-tau3) was 1710 ng·h/mL. It also gave a half-life (in vivo, 200 μg/kg each, GM) of ~2 h, an AUC (in vivo, 200 μg/kg each, GM, read-out: AUC0-t1) of 2490 ng·h/mL and an AUC (in vivo, 200 μg/kg each, GM, read-out: AUC0-tau1) of 2590 ng·h/mL. It also gave an AUC (in vivo, 200 μg/kg each, GM, read-out: AUC0-tau2) of 2750 ng·h/mL, an AUC (in vivo, 200 μg/kg each, GM, read-out: AUC0-tau3) of 2710 ng·h/mL and a Cmax (in vivo, 200 μg/kg each, mean, read-out: Global Cmax) of 2370 ng/mL. The half-life (in vivo, 250 μg/kg each, GM) was ~2 h, the AUC (in vivo, 250 μg/kg each, GM, read-out: AUC0-t1) was 2500 ng·h/mL and the AUC (in vivo, 250 μg/kg each, GM, read-out: AUC0-t2) was 2300 ng·h/mL. The AUC (in vivo, 250 μg/kg each, GM, read-out: AUC0-tau3) was 2460 ng·h/mL, the Tmax (in vivo, all subjects except one (time of the end of infusion), read-out: tmax after each administration) was 0.5 h and the Cmax (plasma, 50 μg/kg, 50 μg/kg each, GM, read-out: Cmax1) was 403 ng/mL. It also gave a Cmax (plasma, 50 μg/kg, 50 μg/kg each, mean, read-out: Cmax2) of 395 ng/mL, a Cmax (plasma, 100 μg/kg, 100 μg/kg each, GM, read-out: Cmax1) of 877 ng/mL and a Cmax (plasma, 100 μg/kg, 100 μg/kg each, GM, read-out: Cmax3) of 958 ng/mL. It also gave a Cmax (plasma, 100 μg/kg, 100 μg/kg each, mean, read-out: Cmax1) of 883 ng/mL, a Cmax (plasma, 100 ug/kg, 100 μg/kg each, mean, read-out: Cmax2) of 977 ng/mL and a Cmax (plasma, 140 μg/kg, 140 μg/kg each, GM, read-out: Cmax1) of 1310 ng/mL. It also gave a Cmax (plasma, 140 μg/kg, 140 μg/kg each, GM, read-out: Cmax3) of 1220 ng/mL, a Cmax (plasma, 140 μg/kg, 140 μg/kg each, mean, read-out: Cmax1) of 1340 ng/mL and a Cmax (plasma, 200 μg/kg, 200 μg/kg each, GM, read-out: Cmax3) of 2130 ng/mL. The Cmax (plasma, 200 μg/kg, 200 μg/kg each, mean, read-out: Cmax1) was 2190 ng/mL, the Cmax (plasma, 200 μg/kg, 200 μg/kg each, mean, read-out: Cmax2) was 2050 ng/mL and the Cmax (plasma, 250 μg/kg, 250 μg/kg each, GM, read-out: Cmax1) was 1890 ng/mL. For the same substance, the Cmax (plasma, 250 μg/kg, 250 μg/kg each, GM, read-out: Cmax2) was 1800 ng/mL, the Cmax (plasma, 250 μg/kg, 250 μg/kg each, GM, read-out: Cmax3) was 1780 ng/mL and the Cmax (plasma, 250 μg/kg, 250 μg/kg each, mean, read-out: Cmax1) was 1960 ng/mL. The Cmax2 (50 μg/kg each, GM) was 391 ng/mL, the Cmax3 (50 μg/kg each, GM) was 396 ng/mL and the tmax1 (50 μg/kg each, GM) was 0.50 h. The tmax2 (50 μg/kg each, GM) was 8.50 h, the Cmax1 (50 μg/kg each, mean) was 406 ng/mL and the tmax1 (50 μg/kg each, median) was 0.50 h. The tmax2 (50 μg/kg each, median) was 8.50 h, the tmax3 (50 μg/kg each, median) was 16.50 h and the Cmax2 (100 μg/kg each, GM) was 971 ng/mL. It also gave a tmax1 (100 μg/kg each, GM) of 0.50 h, a tmax2 (100 μg/kg each, GM) of 8.50 h and a tmax3 (100 μg/kg each, GM) of 16.50 h. It also gave a Cmax3 (100 μg/kg each, mean) of 970 ng/mL, a tmax1 (100 μg/kg each, median) of 0.50 h and a tmax2 (100 μg/kg each, median) of 8.50 h. It also gave a Cmax2 (140 μg/kg each, GM) of 1360 ng/mL, a tmax1 (140 μg/kg each, GM) of 0.50 h and a tmax2 (140 μg/kg each, GM) of 8.47 h. For the same substance, the tmax3 (140 μg/kg each, GM) was 16.50 h, the Cmax2 (140 μg/kg each, mean) was 1390 ng/mL and the Cmax3 (140 μg/kg each, mean) was 1240 ng/mL. The tmax1 (140 μg/kg each, median) was 0.50 h, the tmax2 (140 μg/kg each, median) was 8.50 h and the AUC0-tau3 (200 μg/kg each, GM) was 2774.47 ng·h/mL. For the same substance, the Cmax1 (200 μg/kg each, GM) was 2170 ng/mL, the Cmax2 (200 μg/kg each, GM) was 2020 ng/mL and the tmax1 (200 μg/kg each, GM) was 0.50 h. It also gave a tmax2 (200 μg/kg each, GM) of 8.50 h, a tmax3 (200 μg/kg each, GM) of 16.47 h and a Cmax3 (200 μg/kg each, mean) of 2170 ng/mL. It also gave a tmax1 (200 μg/kg each, median) of 0.50 h, a tmax2 (200 μg/kg each, median) of 8.50 h and a tmax2 (250 μg/kg each, GM) of 8.54 h. The tmax3 (250 μg/kg each, GM) was 16.44 h, the Cmax2 (250 μg/kg each, mean) was 1930 ng/mL and the Cmax3 (250 μg/kg each, mean) was 1800 ng/mL. It also gave a tmax1 (250 μg/kg each, median) of 0.50 h and a tmax2 (250 μg/kg each, median) of 8.50 h.
